Laboratory results published in the NIST ThermoML archive (doi:10.1016/j.tca.2011.12.010).
Where “and” joins values, the source holds several entries; their conditions need not be identical. Equal values may be shown once.

Test: molar heat capacity at constant pressure
Conditions: 101.33 kPa, Small sample (50 mg) DSC

O=[N+]([O-])[O-].O=[N+]([O-])[O-].O=[N+]([O-])[O-].O=[N+]([O-])[O-].[K+].[K+].[Mg+2] [bis-potassium magnesium nitrate]
Conditions	molar heat capacity at constant pressure
298.15 K, Crystal 2	308 J/K/mol
299 K, Crystal 2	308.7 J/K/mol
300 K, Crystal 2	309.8 J/K/mol
301 K, Crystal 2	310.5 J/K/mol
302 K, Crystal 2	310.8 J/K/mol
303 K, Crystal 2	311.5 J/K/mol
304 K, Crystal 2	312.2 J/K/mol
305 K, Crystal 2	312.9 J/K/mol
306 K, Crystal 2	314 J/K/mol
307 K, Crystal 2	314.7 J/K/mol
308 K, Crystal 2	315.7 J/K/mol
309 K, Crystal 2	316.4 J/K/mol
310 K, Crystal 2	317.5 J/K/mol
311 K, Crystal 2	318.5 J/K/mol
312 K, Crystal 2	319.2 J/K/mol
313 K, Crystal 2	319.9 J/K/mol
314 K, Crystal 2	322 J/K/mol
315 K, Crystal 2	322 J/K/mol
316 K, Crystal 2	322.7 J/K/mol
317 K, Crystal 2	323.8 J/K/mol
318 K, Crystal 2	324.8 J/K/mol
319 K, Crystal 2	325.9 J/K/mol
320 K, Crystal 2	326.9 J/K/mol
321 K, Crystal 2	328 J/K/mol
325 K, Crystal 2	329 J/K/mol
326 K, Crystal 2	328 J/K/mol
327 K, Crystal 2	329.7 J/K/mol
328 K, Crystal 2	330.4 J/K/mol
329 K, Crystal 2	331.1 J/K/mol
330 K, Crystal 2	331.1 J/K/mol
331 K, Crystal 2	331.8 J/K/mol
332 K, Crystal 2	332.9 J/K/mol
333 K, Crystal 2	334.3 J/K/mol
334 K, Crystal 2	334.3 J/K/mol
335 K, Crystal 2	334.6 J/K/mol
336 K, Crystal 2	335.3 J/K/mol
337 K, Crystal 2	335.7 J/K/mol
338 K, Crystal 2	336.4 J/K/mol
339 K, Crystal 2	336.7 J/K/mol
340 K, Crystal 2	337.1 J/K/mol
341 K, Crystal 2	338.1 J/K/mol
342 K, Crystal 2	338.5 J/K/mol
343 K, Crystal 2	338.8 J/K/mol
344 K, Crystal 2	339.9 J/K/mol
345 K, Crystal 2	341.3 J/K/mol
346 K, Crystal 2	342 J/K/mol
347 K, Crystal 2	341.6 J/K/mol
348 K, Crystal 2	340.6 J/K/mol
349 K, Crystal 2	340.6 J/K/mol
350 K, Crystal 2	340.9 J/K/mol
351 K, Crystal 2	341.3 J/K/mol
352 K, Crystal 2	342 J/K/mol
353 K, Crystal 2	342.7 J/K/mol
354 K, Crystal 2	343.4 J/K/mol
355 K, Crystal 2	344.1 J/K/mol
356 K, Crystal 2	344.8 J/K/mol
357 K, Crystal 2	345.5 J/K/mol
358 K, Crystal 2	346.2 J/K/mol
359 K, Crystal 2	346.9 J/K/mol
360 K, Crystal 2	347.6 J/K/mol
361 K, Crystal 2	348.3 J/K/mol
362 K, Crystal 2	349.3 J/K/mol
363 K, Crystal 2	350.4 J/K/mol
364 K, Crystal 2	351.4 J/K/mol
365 K, Crystal 2	352.5 J/K/mol
366 K, Crystal 2	353.5 J/K/mol
367 K, Crystal 2	354.6 J/K/mol
368 K, Crystal 2	355.3 J/K/mol
369 K, Crystal 2	356 J/K/mol
370 K, Crystal 2	356.7 J/K/mol
371 K, Crystal 2	357.7 J/K/mol
372 K, Crystal 2	357.8 J/K/mol
373 K, Crystal 2	358.6 J/K/mol
374 K, Crystal 2	360.4 J/K/mol
375 K, Crystal 2	362.7 J/K/mol
376 K, Crystal 2	367.5 J/K/mol
377 K, Crystal 2	372.4 J/K/mol
378 K, Crystal 2	374.9 J/K/mol
379 K, Crystal 2	375.6 J/K/mol
380 K, Crystal 2	375.8 J/K/mol
381 K, Crystal 2	376 J/K/mol
382 K, Crystal 2	376.3 J/K/mol
383 K, Crystal 2	377.7 J/K/mol
384 K, Crystal 2	379.1 J/K/mol
385 K, Crystal 2	380.8 J/K/mol
386 K, Crystal 2	381.9 J/K/mol
387 K, Crystal 2	382.2 J/K/mol
388 K, Crystal 2	382.6 J/K/mol
389 K, Crystal 2	385 J/K/mol
390 K, Crystal 2	386.8 J/K/mol
391 K, Crystal 2	388.2 J/K/mol
392 K, Crystal 2	389.6 J/K/mol
393 K, Crystal 2	391.3 J/K/mol
394 K, Crystal 2	393.8 J/K/mol
395 K, Crystal 2	395.2 J/K/mol
396 K, Crystal 2	397.6 J/K/mol
397 K, Crystal 2	399.7 J/K/mol
398 K, Crystal 2	401.5 J/K/mol
399 K, Crystal 2	403.2 J/K/mol
400 K, Crystal 2	405.3 J/K/mol
401 K, Crystal 2	409.5 J/K/mol
402 K, Crystal 2	412.7 J/K/mol
403 K, Crystal 2	422.1 J/K/mol and 428.4 J/K/mol
403.15 K, Crystal 2	428.4 J/K/mol
404 K, Crystal 2	811 J/K/mol
405 K, Crystal 1	1042.3 J/K/mol
406 K, Crystal 1	900.2 J/K/mol
407 K, Crystal 1	714.4 J/K/mol
408 K, Crystal 1	611.1 J/K/mol
409 K, Crystal 1	562.5 J/K/mol
410 K, Crystal 1	518 J/K/mol
411 K, Crystal 1	464.1 J/K/mol
412 K, Crystal 1	426.3 J/K/mol
413 K, Crystal 1	409.2 J/K/mol
414 K, Crystal 1	403.6 J/K/mol
415 K, Crystal 1	402.9 J/K/mol
415.15 K, Crystal 1	402.9 J/K/mol
416 K, Crystal 1	403.2 J/K/mol
417 K, Crystal 1	403.6 J/K/mol
418 K, Crystal 1	404.3 J/K/mol
419 K, Crystal 1	405.3 J/K/mol
420 K, Crystal 1	406.4 J/K/mol
421 K, Crystal 1	409.2 J/K/mol
422 K, Crystal 1	408.5 J/K/mol
423 K, Crystal 1	407.8 J/K/mol
424 K, Crystal 1	407.3 J/K/mol
425 K, Crystal 1	408.5 J/K/mol
426 K, Crystal 1	406.3 J/K/mol
427 K, Crystal 1	405.9 J/K/mol
428 K, Crystal 1	404.1 J/K/mol
429 K, Crystal 1	403.2 J/K/mol
430 K, Crystal 1	405 J/K/mol and 410 J/K/mol
431 K, Crystal 1	407.1 J/K/mol
432 K, Crystal 1	409.5 J/K/mol
433 K, Crystal 1	412.7 J/K/mol
434 K, Crystal 1	415.1 J/K/mol
435 K, Crystal 1	417.2 J/K/mol
436 K, Crystal 1	419 J/K/mol
437 K, Crystal 1	417.6 J/K/mol
438 K, Crystal 1	420 J/K/mol
439 K, Crystal 1	421.4 J/K/mol
440 K, Crystal 1	425.3 J/K/mol
441 K, Crystal 1	427.7 J/K/mol
442 K, Crystal 1	429.8 J/K/mol
443 K, Crystal 1	431.6 J/K/mol
444 K, Crystal 1	434 J/K/mol
445 K, Crystal 1	436.5 J/K/mol
446 K, Crystal 1	438.9 J/K/mol
447 K, Crystal 1	441.4 J/K/mol
448 K, Crystal 1	444.5 J/K/mol
449 K, Crystal 1	449.1 J/K/mol
450 K, Crystal 1	451.5 J/K/mol
451 K, Crystal 1	454.3 J/K/mol
452 K, Crystal 1	458.9 J/K/mol
453 K, Crystal 1	463.4 J/K/mol
454 K, Crystal 1	469 J/K/mol
455 K, Crystal 1	476 J/K/mol
456 K, Crystal 1	484.1 J/K/mol
457 K, Crystal 1	494.9 J/K/mol
458 K, Crystal 1	508.9 J/K/mol and 511.7 J/K/mol
458.15 K, Crystal 1	511.7 J/K/mol
459 K, Crystal 1	532.4 J/K/mol
460 K, Crystal 1	561.4 J/K/mol
